According to patent publication US20020099070A1, “Dihydronaphthyridine potassium channel openers” (priority 2000, published 2002):

Assays:
[1] = system: Landrace pig bladder strips; test: Functional potassium channel opening activity in isolated bladder strips (field-stimulated twitch); conditions: for Index: ED50 for P1075 divided by ED50 for test agonist, averaged over tissues; for EC50: Sus scrofa, read-out: pD2 (converted); for EC50 / pD2: negative logarithm of ED50; for Efficacy (% P1075): maximal efficacy relative to P1075, field stimulation 0.05 Hz, 0.5 ms, 20 volts
Method: Compounds were evaluated for functional potassium channel opening activity using tissue strips obtained from Landrace pig bladders.
Landrace pig bladders were obtained from female Landrace pigs of 9-30 kg. Landrace pigs were euthanized with an intraperitoneal injection of pentobarbital solution, Somlethal® , J. A. Webster Inc., Sterling, Mass. The entire bladder was removed and immediately placed into Krebs Ringer bicarbonate solution (composition, mM: NaCl, 120; NaHCO3, 20; dextrose, 11; KCl, 4.7; CaCl2, 2.5; MgSO4, 1.5; KH2PO4, 1.2; K2EDTA, 0.01, equilibrated with 5% CO2/95% O2 pH 7.4 at 37° C.). Propranolol (0.004 mM) was included in all of the assays to block β-adrenoceptors. The trigonal and dome portions were discarded. Strips 3-5 millimeters (mm) wide and 20 mm long were prepared from the remaining tissue cut in a circular fashion. The mucosal layer was removed. One end was fixed to a stationary glass rod and the other to a Grass FT03 transducer at a basal preload of 1.0 g. Two parallel platinum electrodes were included in the stationary glass rod to provide field stimulation of 0.05 Hz, 0.5 milli-seconds at 20 volts. This low frequency stimulation produced a stable twitch response of 100-500 centigrams. Tissues were allowed to equilibrate for at least 60 minutes and primed with 80 mM KCl. A control concentration response curve (cumulative) was generated for each tissue using the potassium channel opener P1075 as the control agonist. […] After a 60 minute rinsing period, a concentration response curve (cumulative) was generated for the test agonist in the same fashion as that used for the control agonist P1075. The maximal efficacy of each compounds (expressed as % relative to P1075) is reported. The amount of agent necessary to cause 50% of the agent's maximal response (ED50) was calculated using “ALLFIT” (DeLean et al., Am. J. Physiol., 235, E97 (1980)), and agonist potencies were expressed as pD2 (the negative logarithm). Agonist potencies were also expressed as an index relative to P1075. The index was calculated by dividing the ED50 for P1075 by the ED50 for the test agonist in a give tissue. Each tissue was used for only one test agonist, and the indices obtained from each tissue were averaged to provide an average index of potency.

[2] = system: primary cultured guinea-pig urinary bladder (GPB) cells; test: Membrane hyperpolarization (MHP) assay, DiBAC(4)3 / FLIPR; type: cell-based; conditions: for Maximal Response (% P1075) / Emax: maximal steady-state hyperpolarization, normalized to 10 μM P1075 = 100%; for EC50: membrane hyperpolarization in GPB cells; for Emax: read-out: Maximal Response (% P1075)
Method: Compounds were evaluated for potassium channel opening activity using primary cultured guinea-pig urinary bladder (GPB) cells.
For the preparation of urinary bladder smooth muscle cells, urinary bladders were removed from male guinea-pigs (Hartley, Charles River, Wilmington, Mass.) weighing 300-400 g and placed in ice-cold Ca^2+-free Krebs solution (Composition, mM: KCl, 2.7; KH2PO4, 1.5; NaCl, 75; Na2HPO4, 9.6; Na2HPO4.7H2O, 8; MgSO4, 2; glucose, 5; HEPES, 10; pH 7.4). Cells were isolated by enzymatic dissociation as previously described with minor modifications in Klockner, U. and Isenberg, G., Pflugers Arch. 1985, 405, 329-339, hereby incorporated by reference. The bladder was cut into small sections and incubated in 5 mL of the Kreb's solution containing 1 mg/mL collagenase (Sigma, St. Louis, Mo.) and 0.2 mg/mL pronase (Calbiochem, La Jolla, Calif.) with continuous stirring in a cell incubator for 30 minutes. The mixture was then centrifuged at 1300×g for 5 minutes, and the pellet resuspended in Dulbecco's PBS (GIBCO, Gaithersburg, Md.) and recentrifuged to remove residual enzyme. The cell pellet was resuspended in 5 mL growth media (composition: Dulbecco's modified Eagle's medium supplemented with 10% fetal bovine serum, 100 units/mL penicillin, 100 units/mL streptomycin and […] amphotericin B) and further dissociated by pipetting the suspension through a flame-polished Pasteur pipette and passing it through a polypropylene mesh membrane (Spectrum, Houston, Tex.). The cell density was adjusted to 100,000 cells/mL by resuspension in growth media. Cells were plated in clear-bottomed black 96-well plates (Packard) for membrane potential studies at a density of 20,000 cells/well and maintained in a cell incubator with 90% air: 10% CO2 until confluent. Cells were confirmed to be of smooth muscle type by cytoskeletal staining using a monoclonal mouse anti human-α-smooth muscle actin (Biomeda, Foster City, Calif.).
Functional activity at potassium channels was measured by evaluating changes in membrane potential using the bis-oxonol dye DiBAC(4)3 (Molecular Probes) in a 96-well cell-based kinetic assay system, Fluorescent Imaging Plate Reader (FLIPR) (K. S. Schroeder et al., J. Biomed. Screen., v. 1 pp. 75-81 (1996)), hereby incorporated by reference. DiBAC(4)3 is an anionic potentiometric probe which partitions between cells and extracellular solution in a membrane potential-dependent manner. With increasing membrane potential (for example, K^+ depolarization), the probe fuither partitions into the cell; this is measured as an increase in fluorescence due to dye interaction with intracellular lipids and proteins. Conversely, decreasing membrane potential (hyperpolarization by potassium channel openers) evokes a decrease in fluorescence.
Confluent guinea-pig urinary bladder cells cultured in black clear-bottomed 96-well plates were rinsed twice with […] assay buffer (composition, mM: HEPES, 20; NaCl, 120; KCl, 2; CaCl2, 2; MgCl2, 1; glucose, 5; pH 7.4 at 25° C.) containing 5 μM DiBAC(4)3 and incubated with […] of the buffer in a cell incubator for 30 minutes at 37° C. to ensure dye distribution across the membrane. After recording the baseline fluorescence for 5 minutes, the reference or test compounds, prepared at 10 times the concentration in the assay buffer, were added directly to the wells. Changes in fluorescence were monitored for an additional 25 minutes. Hyperpolarization responses were corrected for any background noise and were normalized to the response observed with 10 μM of the reference compound P1075, N″-cyano-N-(tert-pentyl)-N′-(3-pyridinyl)guanidine, which was assigned as 100%. P1075 is a potent opener of smooth muscle KATP channels (Quast et al., Mol. Pharmacol., v. 43 pp. 474-481 (1993)) and was prepared using the procedures described in (Manley, J. Med. Chem. (1992) 35, 2327-2340), hereby incorporated by reference. […]

SMILES	EC50 [1] [nM]	EC50 [2] [nM]	EC50 ([2]; Cavia porcellus) [nM]	Index [1]	Efficacy (% P1075) [1] [% P1075]	Maximal Response (% P1075) [2] [% P1075]	pD2 [1]	Emax ([2]; Cavia porcellus) [%]	effect on stimulated twitch / contractions of the bladder ([1]; P1075: concentration range 10^−9 to 10^−5 M, cumulative)
CC1=C(C#N)C(c2ccc(F)c(Br)c2)c2c(ccnc2Cl)N1 (centres unmarked) [Example 33, 4-(3-bromo-4-fluorophenyl)-5-chloro-3-cyano-2-methyl-1,4-dihydro[1,6]naphthyridine]	–	28	–	0.0353	61	65	5.31	–	–
CCC(C)(C)NC(=NC#N)Nc1cccnc1 [Example P1075, N″-cyano-N-(tert-pentyl)-N′-(3-pyridinyl)guanidine, reference compound]	–	–	–	–	–	–	–	–	completely eliminated the stimulated twitch
CC1=C(C#N)C(c2ccc(F)c(Br)c2)c2c(cc[nH]c2=S)N1 (centres unmarked) [Example 35, 4-(3-bromo-4-fluorophenyl)-3-cyano-2-methyl-4,6-dihydro[1,6]naphthyridine-5(1H)-thione]	794	–	–	0.3068	77	–	–	–	–
CC1=C(C#N)C(c2ccc(F)c(Br)c2)C2=C(CCNC2=O)N1 (centres unmarked) [Example 2, 4-(3-bromo-4-fluorophenyl)-3-cyano-2-methyl-4,6,7,8-tetrahydro[1,6]naphthyridin-5(1H)-one]	692	–	100	0.2653	60	–	–	122	–
COc1nccc2c1C(c1ccc(F)c(Br)c1)C(C#N)=C(C)N2 (centres unmarked) [Example 38, 4-(3-bromo-4-fluorophenyl)-3-cyano-2-methyl-5-methoxy-1,4-dihydro[1,6]naphthyridine]	1000	–	–	0.2488	78	–	–	–	–
CC1=C(C#N)C(c2ccc(F)c(C(F)(F)F)c2)C2=C(CCOC2=O)N1 (centres unmarked) [Example 26, 4-[4-fluoro-3-(trifluoromethyl)phenyl]-3-cyano-2-methyl-1,4,7,8-tetrahydro-5H-pyrano[4,3-b]pyridin-5-one]	275	–	–	0.6715	98	–	–	–	–

Continued, in another order:

EC50 [1] [nM]	EC50 [2] [nM]	EC50 ([2]; Cavia porcellus) [nM]	SMILES	Index [1]	Efficacy (% P1075) [1] [% P1075]	Maximal Response (% P1075) [2] [% P1075]	pD2 [1]	Emax ([2]; Cavia porcellus) [%]	effect on stimulated twitch / contractions of the bladder ([1]; P1075: concentration range 10^−9 to 10^−5 M, cumulative)
10.2	–	–	CC1=C(C#N)C(c2ccc(F)c(Br)c2)c2c(ccn(C)c2=O)N1 (centres unmarked) [Example 7, 4-(3-bromo-4-fluorophenyl)-3-cyano-2,6-dimethyl-4,6-dihydro[1,6]naphthyridin-5(1H)-one]	2.826	100	–	–	–	–
–	1500	–	CC1=C(C#N)C(c2ccc(F)c(Br)c2)c2c(cc[nH]c2=O)N1 (centres unmarked) [Example 6, 4-(3-bromo-4-fluorophenyl)-3-cyano-2-methyl-4,6-dihydro[1,6]naphthyridin-5(1H)-one]	0.0318	67	102	4.89	–	–
–	17	–	CC1=C(C#N)C(c2ccc(F)c(Br)c2)c2c(cc[nH]c2=O)N1 (centres unmarked) [Example 5, 4-(3-bromo-4-fluorophenyl)-3-cyano-2-methyl-4,6-dihydro[1,6]naphthyridin-5(1H)-one]	1.2740	98	–	6.85	114	–
–	6	–	CC1=C(C#N)C(c2ccc(F)c(Br)c2)c2c(ccnc2Cl)N1 (centres unmarked) [Example 34, 4-(3-bromo-4-fluorophenyl)-5-chloro-3-cyano-2-methyl-1,4-dihydro[1,6]naphthyridine]	0.2089	85	90	6.14	–	–
